One data set has as its system SARS-CoV-2. In words: microbe, parasite or virus in culture. Particulars: Severe acute respiratory syndrome coronavirus 2, Vero, 24 h; read-out: IC50, inhibition of SARS-CoV-2 infection. The data set is classed as cell-based.
A further data set concerns the target SARS-CoV-2 Mpro (Severe acute respiratory syndrome coronavirus 2, UniProt P0DTD1). In words: SARS-CoV-2 Mpro activity inhibition assay (FRET peptide). The data set is classed as biochemical. Particulars: MBP-tagged Mpro, FRET peptide substrate, 30 min.
For the next data set, the target named is SARS-CoV-2 PLpro (Severe acute respiratory syndrome coronavirus 2, UniProt P0DTD1). In words: SARS-CoV-2 PLpro activity inhibition assay. The data set is classed as biochemical. As to conditions: 25 μM compound. The method, then:
The fluorescence intensity was measured at 360 nm/460 nm using a Synergy H1 microplate reader (Bio-Tek). GRL061 (BPS Bioscience) was used as a positive control.
To elucidate the mode of action of PGG and PAC, the effect of those compounds on the activity of the viral protease, Mpro, was examined using SARS-CoV-2 Mpro activity assay kits.

A further data set concerns the target T1, SARS-CoV-2 RdRp (Severe acute respiratory syndrome coronavirus 2, UniProt P0DTD1).
T1 construct: the RdRp expression plasmid, pCI-SARS-CoV-2 nsp12-N; expressed in transfected cells; host or cells: HEK293T
In words: cell-based. Particulars: HEK293T cells, 18 h treatment; read-out: IC50, SARS-CoV-2 RdRp activity (NLuc/FLuc).

The next data set relates to SARS-CoV. The experiment in a line: microbe, parasite or virus in culture. Particulars: Severe acute respiratory syndrome coronavirus, Vero, 24 h, read-out: IC50, inhibition of SARS-CoV infection. The data set is classed as cell-based.
A further data set deals with MERS-CoV. In words: microbe, parasite or virus in culture. Particulars: Middle East respiratory syndrome-related coronavirus, Vero, 24 h, read-out: IC50, inhibition of MERS-CoV infection. The data set is classed as cell-based.
The next data set can be described thus: in vitro. As to conditions: African green monkey.

Several values for one entry are separate records, joined by “and”; a condition that tells them apart may be missing. Equal values may be shown once. Entries after “also recorded” stand apart in the source; their conditions may differ.

Take `Oc1cc(O)c2c(c1)OC(c1ccc(O)c(O)c1)C(OC1(c3ccc(O)c(O)c3)Oc3cc(O)cc(O)c3C(O)C1O)C2` (centres unmarked) [PAC, proanthocyanidin]: the IC50 in the data set on SARS-CoV-2 is 25.9 ± 0.81 µM; at SARS-CoV-2 Mpro, 25 to 26 µM and 26 µM; on SARS-CoV-2 RdRp, 21 ± 1.2 µM; in the data set on SARS-CoV it was 15.2 ± 0.28 µM; in the data set with MERS-CoV it was 4.95 ± 0.181 µM. Besides, the “Inhibition of SARS-CoV-2 PLpro activity” value at SARS-CoV-2 PLpro was “did not inhibit; also recorded: did not affect”. Also, the “Cytotoxicity or inhibition of host transcription (FLuc internal control levels)” value in the data set on HEK293T cells is listed as “without cytotoxicity or the inhibition of host transcription”. In “in vitro”, the CC50 is over 50 µM.

For `O=C(OC[C@H]1O[C@@H](OC(=O)c2cc(O)c(O)c(O)c2)[C@H](OC(=O)c2cc(O)c(O)c(O)c2)[C@@H](OC(=O)c2cc(O)c(O)c(O)c2)[C@@H]1OC(=O)c1cc(O)c(O)c(O)c1)c1cc(O)c(O)c(O)c1` [PGG, 1,2,3,4,6-penta-O-galloyl-beta-D-glucose], the IC50 is 15 ± 0.75 µM with SARS-CoV-2, 15.7 ± 1.02 µM in the data set on SARS-CoV and 3.47 ± 0.231 µM in the data set with MERS-CoV. In addition, at SARS-CoV-2 PLpro, the “Inhibition of SARS-CoV-2 PLpro activity” value is recorded as “did not inhibit; also recorded: did not affect”. Further, in the data set with HEK293T cells, the “Cytotoxicity or inhibition of host transcription (FLuc internal control levels)” value was “without cytotoxicity or the inhibition of host transcription”. For the same compound, the CC50 in “in vitro” is over 50 µM.

These data come from PMC9138959 (Biomedicines, 2022).
